According to patent US12569422B2, “Composition and method of inhibiting cortisone reductase by applying it to the skin” (AMOREPACIFIC CORPORATION, priority 2018, dated 2026):

Tests used:
Format in all cases: cell-based
[1] = target: T1, 11β-hydroxysteroid dehydrogenase type 1 (Homo sapiens, UniProt P28845); test: Cortisol concentration in cell culture solution of UVB-irradiated, cortisone-treated keratinocytes (ELISA); conditions: coumestrol 1 μM, 5 μM
T1 construct: endogenous in cells; host or cells: normal human epidermal keratinocytes (NHEK)
Experimental: (§1) Human keratinocytes (normal human epidermal keratinocytes, NHEK) were cultured in a 6-well plate incubator. Specifically, the normal human epidermal keratinocytes were cultured by replacing it with phosphate-buffered saline (PBS) after 24 hours to irradiate UVB (25 mJ/cm^2) and then, adding cortisone (10 μM) to NHEK culture media having no hydrocortisone. Subsequently, the cell culture solution was collected to measure a cortisol concentration in an ELISA method, and the results are shown in FIG. 1.

keratin 1 (KRT1) = test: Western blotting of keratinocyte differentiation marker KRT1 in UVB-irradiated keratinocytes; conditions: human keratinocytes, coumestrol 1 μM, 5 μM, 10 μM, FIG. 2
Experimental: as §1
(§2) In addition, after separating proteins from the human keratinocytes using a RIPA lysis buffer, protein expression of keratinocyte differentiation markers (KRT1, Filaggrin) was confirmed through western blotting, and the results are shown in FIGS. 2 and 3. Referring to FIGS. 2 and 3, in the wells containing the coumestrol (1 μM, 5 μM, 10 μM), gene expression of the keratinocyte differentiation markers (KRT1, Filaggrin) inhibited by the ultraviolet (UVB) rays was increased in the keratinocytes. In other words, the gene expression of the keratinocyte differentiation markers inhibited by the ultraviolet (UVB) rays in the keratinocytes was restored by the coumestrol, and accordingly, the coumestrol inhibited activity of the cortisone reductase and reduced the cortisol concentration, eventually restoring the gene expression of the keratinocyte differentiation markers.

Filaggrin = test: Western blotting of keratinocyte differentiation marker filaggrin in UVB-irradiated keratinocytes; conditions: human keratinocytes, coumestrol 1 μM, 5 μM, 10 μM, FIG. 3
Experimental: as §1, §2

T1 sequence (P28845 whole entry): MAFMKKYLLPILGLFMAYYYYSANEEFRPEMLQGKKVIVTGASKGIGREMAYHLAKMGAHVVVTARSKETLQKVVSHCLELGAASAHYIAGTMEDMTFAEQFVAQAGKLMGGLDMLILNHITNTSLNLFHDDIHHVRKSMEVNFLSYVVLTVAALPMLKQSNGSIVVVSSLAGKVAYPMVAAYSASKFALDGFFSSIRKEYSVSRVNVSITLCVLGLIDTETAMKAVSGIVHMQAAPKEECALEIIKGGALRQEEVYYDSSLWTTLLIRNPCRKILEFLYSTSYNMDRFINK

SMILES: O=c1oc2cc(O)ccc2c2oc3cc(O)ccc3c12 [coumestrol]
- cortisol concentration in cell culture solution ([1]; NHEK, UVB 25 mJ/cm^2, cortisone 10 μM, compared with control before UV irradiation, FIG. 1): not significantly increased
- activity of 11β-hydroxysteroid dehydrogenase type 1 (cortisone reductase) ([1]; conclusion from cortisol ELISA in NHEK, 10 μM): inhibit activity
- expression of keratinocyte differentiation marker KRT1 inhibited by UVB (keratin 1 (KRT1)): increased
- expression of keratinocyte differentiation marker Filaggrin inhibited by UVB (Filaggrin): increased
